Target: T1, Human MGAT-2 (Homo sapiens, UniProt Q3SYC2)
T1 construct: made in house; host or cells: Sf9 cells (membrane preparation)
Experiment: MGAT LCMS Assay
Type: biochemical
Conditions: human MGAT2 membranes expressed in Sf9 cells; 100 μM 2-oleoylglycerol, 15 μM oleoyl-coenzyme A; read-out: h-MGAT LCMS IC50
In short: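 Robotic enzyme reaction shaken 10 min, quenched with ice-cold methanol containing 1 μg/mL 1,2-distearoyl-rac-glycerol internal standard. Diolein product measured by LC/MS (C8 column, 65° C, APCI(+) triple quad). IC50 derived from diolein/internal standard peak area ratio.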

T1 sequence (Q3SYC2 whole entry): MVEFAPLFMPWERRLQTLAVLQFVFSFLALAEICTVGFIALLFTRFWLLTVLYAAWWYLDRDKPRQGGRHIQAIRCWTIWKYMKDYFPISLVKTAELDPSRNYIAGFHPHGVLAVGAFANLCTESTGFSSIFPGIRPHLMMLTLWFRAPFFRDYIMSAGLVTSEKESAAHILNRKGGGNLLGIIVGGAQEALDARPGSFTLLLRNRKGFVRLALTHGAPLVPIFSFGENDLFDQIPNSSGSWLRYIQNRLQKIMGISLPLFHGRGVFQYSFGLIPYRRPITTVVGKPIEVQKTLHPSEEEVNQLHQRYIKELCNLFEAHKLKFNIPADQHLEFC

| SMILES | IC50 |
| --- | --- |
| CCc1ccc(-c2cc(-c3ccc(OCCCC(F)(F)F)cc3Cl)[nH]c(=O)c2C(=O)NS(C)(=O)=O)s1 [Example 140, 6-(2-Chloro-4-(4,4,4-trifluorobutoxy)phenyl)-4-(5-ethylthiophen-2-yl)-N-(methylsulfonyl)-2-oxo-1,2-dihydropyridine-3-carboxamide] | 30 nM |
| CCc1ccc(-c2cc(-c3ccc(/C=C/C4CC4)cc3)[nH]c(=O)c2-c2nn[nH]n2)s1 [Example 142, (E)-6-(4-(2-Cyclopropylvinyl)phenyl)-4-(5-ethylthiophen-2-yl)-3-(2H-tetrazol-5-yl)pyridin-2(1H)-one] | 4 nM |
| CN(C)c1ncc(-c2cc(-c3ccc(OCCCC(F)(F)F)cc3)[nH]c(=O)c2-c2nnn[nH]2)s1 [Example 68, 4-(2-(Dimethylamino)thiazol-5-yl)-3-(1H-tetrazol-5-yl)-6-(4-(4,4,4-trifluorobutoxy)phenyl)pyridin-2(1H)-one] | 673 nM |
| O=c1[nH]c(-c2ccc(OCCCC(F)(F)F)cc2F)cc(-c2ccc3c(c2)CCCC3)c1-c1nn[nH]n1 [Example 89, 6-(2-Fluoro-4-(4,4,4-trifluorobutoxy)phenyl)-4-(5,6,7,8-tetrahydronaphthalen-2-yl)-3-(2H-tetrazol-5-yl)pyridin-2(1H)-one] | 24 nM |
| CCCC1CC=C(c2ccc(-c3cc(-c4ccn(CC5CC5)n4)c(-c4nn[nH]n4)c(=O)[nH]3)cc2)CC1 (centres unmarked) [Example 173, 4-[1-(Cyclopropylmethyl)-1H-pyrazol-3-yl]-6-[4-(4-propylcyclohex-1-en-1-yl)phenyl]-3-(2H-1,2,3,4-tetrazol-5-yl)-1,2-dihydropyridin-2-one] | 57 nM |
| CS(=O)(=O)NC(=O)c1c(-c2ncc(C3CC3)s2)cc(-c2ccc(OCCCC(F)(F)F)cc2F)[nH]c1=O [Example 141, 4-(5-Cyclopropylthiazol-2-yl)-6-(2-fluoro-4-(4,4,4-trifluorobutoxy)phenyl)-N-(methylsulfonyl)-2-oxo-1,2-dihydropyridine-3-carboxamide] | 7 nM |
| CC1(C)CCC(c2ccc(-c3cc(-c4ccn(CC5CC5)n4)c(-c4nn[nH]n4)c(=O)[nH]3)cc2)CC1 [Example 172, 4-[1-(Cyclopropylmethyl)-1H-pyrazol-3-yl]-6-[4-(4,4-dimethylcyclohexyl)phenyl]-3-(2H-1,2,3,4-tetrazol-5-yl)-1,2-dihydropyridin-2-one] | 26 nM |
| CC1(C)CC=C(c2ccc(-c3cc(-c4ccn(CC5CC5)n4)c(-c4nn[nH]n4)c(=O)[nH]3)cc2)CC1 [Example 170, 4-[1-(Cyclopropylmethyl)-1H-pyrazol-3-yl]-6-[4-(4,4-dimethylcyclohex-1-en-1-yl)phenyl]-3-(2H-1,2,3,4-tetrazol-5-yl)-1,2-dihydropyridin-2-one] | 17 nM |
| Cc1ccc(-c2cc(-c3ccc(OCCCC(F)(F)F)cc3)[nH]c(=O)c2C(=O)NC2CCC2)cc1 [Example 79, N-Cyclobutyl-2-oxo-4-(p-tolyl)-6-(4-(4,4,4-trifluorobutoxy)phenyl)-1,2-dihydropyridine-3-carboxamide] | 198 nM |
| CC(C)(C)C1CC=C(c2ccc(-c3cc(-c4ccn(CC5CC5)n4)c(-c4nn[nH]n4)c(=O)[nH]3)cc2)CC1 (centres unmarked) [Example 171, 6-[4-(4-tert-Butylcyclohex-1-en-1-yl)phenyl]-4-[1-(cyclopropylmethyl)-1H-pyrazol-3-yl]-3-(2H-1,2,3,4-tetrazol-5-yl)-1,2-dihydropyridin-2-one] | 6 nM |

Other lines, results leading:

| IC50 | SMILES |
| --- | --- |
| 7 nM | O=C(Nc1ccc(OC(F)(F)F)cc1)c1c(-c2ccc(Cl)s2)cc(C2CCCCC2)[nH]c1=O [Example 85, 4-(5-Chlorothiophen-2-yl)-6-cyclohexyl-2-oxo-N-(4-(trifluoromethoxy)phenyl)-1,2-dihydropyridine-3-carboxamide] |
| 72 nM | CCOc1ccc(NC(=O)c2c(-c3ccc(C)cc3)c(C)c(C3CCCCC3)[nH]c2=O)cc1 [Example 25, 6-Cyclohexyl-N-(4-ethoxyphenyl)-5-methyl-2-oxo-4-(p-tolyl)-1,2-dihydropyridine-3-carboxamide] |
| 178 nM | CC/C=C/c1c(-c2ccc(CCCCC)cc2)[nH]c(=O)c(C(=O)Nc2ccc(OCC)cc2)c1-c1ccc(C)cc1 [Example 31, (E)-5-(But-1-en-1-yl)-N-(4-ethoxyphenyl)-2-oxo-6-(4-pentylphenyl)-4-(p-tolyl)-1,2-dihydropyridine-3-carboxamide] |
| 1 nM | CN(C)c1ncc(-c2cc(C3CCCCC3)[nH]c(=O)c2C(=O)Nc2ccc(OC(F)(F)F)cc2)s1 [Example 82, 6-Cyclohexyl-4-(2-(dimethylamino)thiazol-5-yl)-2-oxo-N-(4-(trifluoromethoxy)phenyl)-1,2-dihydropyridinc-3-carboxamide] |
| 7 nM | CCc1ccc(-c2cc(-c3ccc(OCCCCCC(F)(F)F)cc3)[nH]c(=O)c2C(=O)NS(C)(=O)=O)s1 [Example 101, 4-(5-Ethylthiophen-2-yl)-N-(methylsulfonyl)-2-oxo-6-(4-((6,6,6-trifluorohexyl)oxy)phenyl)-1,2-dihydropyridine-3-carboxamide] |
| 2 nM | CCOc1ccc(NC(=O)c2c(-c3cnc(N(C)C)s3)cc(-c3ccc(OCCCC(F)(F)F)cc3)[nH]c2=O)cc1 [Example 67] |
| 3 nM | Cc1ccc(-c2cc(-c3ccc(OCCCCCC(F)(F)F)cc3C(F)(F)F)[nH]c(=O)c2-c2nnn[nH]2)cc1 [Example 134, 3-(2H-Tetrazol-5-yl)-4-(p-tolyl)-6-(4-((6,6,6-trifluorohexyl)oxy)-2-(trifluoromethyl)phenyl)pyridin-2(1H)-one] |
| 29 nM | Cc1ccc(-c2c(F)c(-c3ccc(OCCCCCC(F)(F)F)cc3)[nH]c(=O)c2C(=O)NS(C)(=O)=O)cc1 [Example 117, 5-Fluoro-N-(methylsulfonyl)-2-oxo-4-(p-tolyl)-6-(4-((6,6,6-trifluorohexyl)oxy)phenyl)-1,2-dihydropyridine-3-carboxamide] |
| 193 nM | CCCCCc1ccc(-c2[nH]c(=O)c(C(=O)Nc3ccc(OCC)cc3)c(-c3ccc(C)cc3)c2-c2ccccc2)cc1 [Example 32, N-(4-Ethoxyphenyl)-2-oxo-6-(4-pentylphenyl)-5-phenyl-4-(p-tolyl)-1,2-dihydropyridine-3-carboxamide] |
| 1250 nM | CCOc1ccc(NC(=O)c2c(-c3ccc(C)cc3)c(F)c(C3CCCCC3)[nH]c2=O)cc1 [Example 38, 6-Cyclohexyl-N-(4-ethoxyphenyl)-5-fluoro-2-oxo-4-(p-tolyl)-1,2-dihydropyridine-3-carboxamide] |
| 390 nM | CCCCCc1ccc(-c2c(C3CCCC3)[nH]c(=O)c(C(=O)Nc3ccc(OCC)cc3)c2-c2ccc(C)cc2)cc1 [Example 40, 6-Cyclopentyl-N-(4-ethoxyphenyl)-2-oxo-5-(4-pentylphenyl)-4-(p-tolyl)-1,2-dihydropyridine-3-carboxamide] |
| 137 nM | CCOc1ccc(NC(=O)c2c(-c3ccc(C)cc3)cc(C3CCCCC3)[nH]c2=O)cc1 [Example 28, 6-Cyclohexyl-N-(4-ethoxyphenyl)-2-oxo-4-(p-tolyl)-1,2-dihydropyridine-3-carboxamide] |
| 168 nM | CCC/C=C/c1ccc(-c2cc(-c3ccc(N(C)C)cc3)c(-c3nn[nH]n3)c(=O)[nH]2)cc1 [Example 80, (E)-4-(4-(Dimethylamino)phenyl)-6-(4-(pent-1-en-1-yl)phenyl)-3-(2H-tetrazol-5-yl)pyridin-2(1H)-one] |
